# Experimental data: patent publication US20180243298A1, “TRPV3 MODULATORS” (AbbVie Inc., priority 2015, published 2018)
# pIC50: −log10 of the molar value.
# Biological target: T1, human TRPV3 (Homo sapiens, UniProt Q8NET8)
# T1 construct: expressed in transfected cells; host or cells: HEK293
# T1 sequence (Q8NET8 1-790): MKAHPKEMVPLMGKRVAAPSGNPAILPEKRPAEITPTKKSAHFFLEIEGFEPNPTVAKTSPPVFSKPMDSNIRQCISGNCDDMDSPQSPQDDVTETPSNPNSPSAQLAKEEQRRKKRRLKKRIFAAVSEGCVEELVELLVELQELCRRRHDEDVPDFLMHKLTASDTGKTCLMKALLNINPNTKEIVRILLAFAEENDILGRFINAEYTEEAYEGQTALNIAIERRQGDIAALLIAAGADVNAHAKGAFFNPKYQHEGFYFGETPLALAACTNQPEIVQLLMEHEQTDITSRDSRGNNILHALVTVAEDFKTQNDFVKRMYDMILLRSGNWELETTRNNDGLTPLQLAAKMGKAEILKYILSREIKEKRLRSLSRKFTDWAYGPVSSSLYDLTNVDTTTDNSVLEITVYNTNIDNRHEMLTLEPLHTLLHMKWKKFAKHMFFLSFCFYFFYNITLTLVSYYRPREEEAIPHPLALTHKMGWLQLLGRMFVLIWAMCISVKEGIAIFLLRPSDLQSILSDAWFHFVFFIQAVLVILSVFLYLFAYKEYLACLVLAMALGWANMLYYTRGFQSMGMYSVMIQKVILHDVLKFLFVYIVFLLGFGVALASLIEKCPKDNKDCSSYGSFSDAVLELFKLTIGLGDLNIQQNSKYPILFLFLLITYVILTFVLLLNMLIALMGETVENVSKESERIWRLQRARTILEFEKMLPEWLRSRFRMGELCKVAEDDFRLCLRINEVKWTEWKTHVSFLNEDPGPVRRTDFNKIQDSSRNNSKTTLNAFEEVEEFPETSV
# Assay: Calcium flux assay (FLIPR TETRA), recombinant HEK293 cells expressing TRPV3, 2-APB response
# Type: cell-based
# Settings: 2-APB at its EC80
# Protocol: (i) In Vitro Methods-Calcium Flux Assays:
# Experiments were conducted using the FLIPR TETRA®. On the day prior to the experiment, recombinant HEK293 cells that stably express human and mouse TRPV3 were removed from tissue culture flasks and plated in growth medium at 20,000 cells/well into black-walled clear-bottom 384-well BIOCOAT™ poly-D-lysine assay plates (BD Biosciences, Bedford, Mass.) using a MULTIDROP® dispenser (ThermoScientific, Waltham, Mass.). On the day of the experiment, growth medium was removed, and the no-wash FLIPR® Calcium-4 dye (λEX=470-495 nm, λEM=515-575 nm; Molecular Devices, Sunnyvale, Calif.) was added to each well using the MULTIDROP® dispenser. Cells were incubated for 90-120 minutes in the dark. The compounds were dissolved in DMSO to prepare a 10 mM stock solution. The intensity of the fluorescence was captured and digitally transferred to an interfaced PC. The peak increase in fluorescence over baseline, measured in relative fluorescence units, was calculated and expressed as the percentage of the maximal 2-APB (2-aminoethoxyldiphenyl borate) response (in the absence of compound). The concentration of 2-APB corresponds to its EC80.
row,pIC50,Compound
1,6.30 to 7.00,"COc1ncnc(OC)c1C(=O)Nc1nc(-c2ccc(C(F)(F)F)cn2)c(C(C)O)s1 (single isomer, unassigned) [Example 83, N-{5-[(1R*)-1-hydroxyethyl]-4-[5-(trifluoromethyl)pyridin-2-yl]-1,3-thiazol-2-yl}-4,6-dimethoxypyrimidine-5-carboxamide]"
2,6.30 to 7.00,"COc1ncnc(OC)c1C(=O)Nc1nc(-c2ccc(C(F)(F)F)cn2)c(C(C)O)s1 (single isomer, unassigned) [Example 84, N-{5-[(1S*)-1-hydroxyethyl]-4-[5-(trifluoromethyl)pyridin-2-yl]-1,3-thiazol-2-yl}-4,6-dimethoxypyrimidine-5-carboxamide]"
3,< 6.00,"COc1ncnc(OC)c1C(=O)Nc1nc(C(F)(F)F)c(C2CCCOC2)s1 (single isomer, unassigned) [Example 149, 4,6-dimethoxy-N-{5-[(3S*)-tetrahydro-2H-pyran-3-yl]-4-(trifluoromethyl)-1,3-thiazol-2-yl}pyrimidine-5-carboxamide]"
4,6.30 to 7.00,"COc1ncnc(OC)c1C(=O)Nc1nc(C(F)(F)F)c([C@@H]2CCCOC2)s1 (single isomer, unassigned) [Example 150]"
5,< 6.00,"COc1ncnc(OC)c1C(=O)Nc1nc(C(F)(F)F)c(CCCO)s1 [Example 13, N-[5-(3-hydroxypropyl)-4-(trifluoromethyl)-1,3-thiazol-2-yl]-4,6-dimethoxypyrimidine-5-carboxamide]"
6,> 7.30,"COc1ncnc(OC)c1C(=O)Nc1nc(C(F)(F)F)c(C#CC2CC2)s1 [Example 14, N-[5-(cyclopropylethynyl)-4-(trifluoromethyl)-1,3-thiazol-2-yl]-4,6-dimethoxypyrimidine-5-carboxamide]"
7,> 7.30,"COCC#Cc1sc(NC(=O)c2c(OC)ncnc2OC)nc1C(F)(F)F [Example 15, 4,6-dimethoxy-N-[5-(3-methoxyprop-1-yn-1-yl)-4-(trifluoromethyl)-1,3-thiazol-2-yl]pyrimidine-5-carboxamide]"
8,> 7.30,"COCCCc1sc(NC(=O)c2c(OC)ncnc2OC)nc1C(F)(F)F [Example 16, 4,6-dimethoxy-N-[5-(3-methoxypropyl)-4-(trifluoromethyl)-1,3-thiazol-2-yl]pyrimidine-5-carboxamide]"
9,> 7.30,"COC/C=C\c1sc(NC(=O)c2c(OC)ncnc2OC)nc1C(F)(F)F [Example 17, 4,6-dimethoxy-N-{5-[(1Z)-3-methoxyprop-1-en-1-yl]-4-(trifluoromethyl)-1,3-thiazol-2-yl}pyrimidine-5-carboxamide]"
10,> 7.30,"COC/C=C/c1sc(NC(=O)c2c(OC)ncnc2OC)nc1C(F)(F)F [Example 18, 4,6-dimethoxy-N-{5-[(1E)-3-methoxyprop-1-en-1-yl]-4-(trifluoromethyl)-1,3-thiazol-2-yl}pyrimidine-5-carboxamide]"
11,7.00 to 7.30,"COc1ncnc(OC)c1C(=O)Nc1nc(C(F)(F)F)c(C#CC(C)(C)O)s1 [Example 19, N-[5-(3-hydroxy-3-methylbut-1-yn-1-yl)-4-(trifluoromethyl)-1,3-thiazol-2-yl]-4,6-dimethoxypyrimidine-5-carboxamide]"
12,6.00 to 6.30,"COc1ncnc(OC)c1C(=O)Nc1nc(C(F)(F)F)c(CCC(C)(C)O)s1 [Example 20, N-[5-(3-hydroxy-3-methylbutyl)-4-(trifluoromethyl)-1,3-thiazol-2-yl]-4,6-dimethoxypyrimidine-5-carboxamide]"
13,> 7.30,"CCOC(=O)c1sc(NC(=O)c2c(OC)ncnc2OC)nc1C(F)(F)F [Example 21, ethyl 2-{[(4,6-dimethoxypyrimidin-5-yl)carbonyl]amino}-4-(trifluoromethyl)-1,3-thiazole-5-carboxylate]"
14,< 6.00,"COc1ncnc(OC)c1C(=O)Nc1nc(C(F)(F)F)c(CCO)s1 [Example 22, N-[5-(2-hydroxyethyl)-4-(trifluoromethyl)-1,3-thiazol-2-yl]-4,6-dimethoxypyrimidine-5-carboxamide]"
15,6.30 to 7.00,"COc1ncnc(OC)c1C(=O)Nc1nc(C(F)(F)F)c(-c2ccc(N3CCOCC3)nc2)s1 [Example 23, 4,6-dimethoxy-N-{5-[6-(morpholin-4-yl)pyridin-3-yl]-4-(trifluoromethyl)-1,3-thiazol-2-yl}pyrimidine-5-carboxamide]"

# Second part, the compound before the results:
row,Compound,pIC50
1,"4,6-dimethoxy-N-[5-(2-methoxypyrimidin-5-yl)-4-(trifluoromethyl)-1,3-thiazol-2-yl]pyrimidine-5-carboxamide [Example 183]",6.30 to 7.00
2,"COc1ncnc(OC)c1C(=O)Nc1nc(C(F)(F)F)c(C)s1 [Example 1, 4,6-dimethoxy-N-[5-methyl-4-(trifluoromethyl)-1,3-thiazol-2-yl]pyrimidine-5-carboxamide]",7.00 to 7.30
3,"COc1ncnc(OC)c1C(=O)Nc1nc(C(F)(F)F)c(I)s1 [Example 2, N-[5-iodo-4-(trifluoromethyl)-1,3-thiazol-2-yl]-4,6-dimethoxypyrimidine-5-carboxamide]",> 7.30
4,"COc1ncnc(OC)c1C(=O)Nc1nc(C(F)(F)F)cs1 [Example 3, 4,6-dimethoxy-N-[4-(trifluoromethyl)-1,3-thiazol-2-yl]pyrimidine-5-carboxamide]",6.30 to 7.00
5,"COc1ncnc(OC)c1C(=O)Nc1nc(C(F)(F)F)c(-c2ccc(Cl)cc2)s1 [Example 4, N-[5-(4-chlorophenyl)-4-(trifluoromethyl)-1,3-thiazol-2-yl]-4,6-dimethoxypyrimidine-5-carboxamide]",7.00 to 7.30
6,"CCOc1ncnc(OCC)c1C(=O)Nc1nc(C(F)(F)F)c(-c2ccc(Cl)cc2)s1 [Example 5, N-[5-(4-chlorophenyl)-4-(trifluoromethyl)-1,3-thiazol-2-yl]-4,6-diethoxypyrimidine-5-carboxamide]",6.00 to 6.30
7,"CCc1sc(NC(=O)c2c(OC)ncnc2OC)nc1C(F)(F)F [Example 6, N-[5-ethyl-4-(trifluoromethyl)-1,3-thiazol-2-yl]-4,6-dimethoxypyrimidine-5-carboxamide]",> 7.30
8,"CCOc1ncnc(OCC)c1C(=O)Nc1nc(C(F)(F)F)c(C#N)s1 [Example 7, N-[5-cyano-4-(trifluoromethyl)-1,3-thiazol-2-yl]-4,6-diethoxypyrimidine-5-carboxamide]",6.00 to 6.30
9,"COc1ncnc(OC)c1C(=O)Nc1nc(C(F)(F)F)c(-c2ccc(F)nc2)s1 [Example 8, N-[5-(6-fluoropyridin-3-yl)-4-(trifluoromethyl)-1,3-thiazol-2-yl]-4,6-dimethoxypyrimidine-5-carboxamide]",7.00 to 7.30
10,"COc1ncnc(OC)c1C(=O)Nc1nc(C)c(C)s1 [Example 9, N-(4,5-dimethyl-1,3-thiazol-2-yl)-4,6-dimethoxypyrimidine-5-carboxamide]",< 6.00
11,"COc1ncnc(OC)c1C(=O)Nc1nc(C(F)(F)F)c(C#C[Si](C)(C)C)s1 [Example 10, 4,6-dimethoxy-N-{4-(trifluoromethyl)-5-[(trimethylsilyl)ethynyl]-1,3-thiazol-2-yl}pyrimidine-5-carboxamide]",> 7.30
12,"C#Cc1sc(NC(=O)c2c(OC)ncnc2OC)nc1C(F)(F)F [Example 11, N-[5-ethynyl-4-(trifluoromethyl)-1,3-thiazol-2-yl]-4,6-dimethoxypyrimidine-5-carboxamide]",> 7.30
13,"COc1ncnc(OC)c1C(=O)Nc1nc(C(F)(F)F)c(C#CCO)s1 [Example 12, N-[5-(3-hydroxyprop-1-yn-1-yl)-4-(trifluoromethyl)-1,3-thiazol-2-yl]-4,6-dimethoxypyrimidine-5-carboxamide]",6.30 to 7.00
